The source of these data is patent US8343477B2, “Inhibitors of hepatitis C virus” (Bristol-Myers Squibb Company, priority 2006, dated 2013).

For orientation: melting point means the temperature, or range, at which the solid turns liquid.

Data set [1] concerns human pancreatic chymotrypsin. Nature of the data set: Specificity assay, chymotrypsin (pNA substrate). Type of data set: biochemical. As to conditions: read-out: Chymotrypsin activity in the specificity assays (IC50). As for the experimental part: The specificities of compounds of the present disclosure were determined against a variety of serine proteases: human neutrophil elastase (HNE), porcine pancreatic elastase (PPE) and human pancreatic chymotrypsin and one cysteine protease: human liver cathepsin B. In all cases, a 96-well plate format protocol using colorimetric p-nitroaniline (pNA) substrate or fluorometric Amino-Methyl-Coumarin (AMC) substrate, specific for each enzyme was used as described previously (PCT Patent Application No. WO 00/09543) with some modifications. All enzymes were purchased from Sigma or EMDbiosciences while the substrates were from Bachem.
Each pNA assay included a 2 h enzyme-inhibitor pre-incubation at room temperature followed by addition of substrate and hydrolysis to ˜15% conversion as measured on a Spectramax Pro microplate reader. The cathepsin B assay was initiated by adding substrate to a 10 min enzyme-inhibitor pre-incubation at room temperature, and the assay plate measured immediately using the Cytofluor Series 4000. Compound concentrations varied from 100 to 0.4 μM depending on their potency.
50 mM Tris(hydroxymethyl)aminomethane hydrochloride (Tris-HCl) pH 8, 0.5 M Sodium Sulfate (Na2SO4), 50 mM NaCl, 0.1 mM EDTA, 3% DMSO, 0.01% Tween-20 with: […]
The percentage of inhibition was calculated using the formula: [1−((UVinh−UVblank)/(UVctl−UVblank))]×100 […]

Data set [2] deals with HCV NS3/4A protease complex, BMS strain (Hepatitis C virus genotype 1a, UniProt P27958). Nature of the data set: FRET peptide assay to monitor HCV NS3/4A proteolytic activity, BMS strain. As to conditions: read-out: IC50 against the NS3/4A BMS strain in the enzyme assay. The data set is classed as biochemical, HCV genotype 1a. From the text: (§1) HCV NS3 protease complexes, derived from the BMS strain, H77 strain or J4L6S strain, were generated, as described below. These purified recombinant proteins were generated for use in a homogeneous assay (see below) to provide an indication of how effective compounds of the present disclosure would be in inhibiting HCV NS3 proteolytic activity.
Sequence of HCV NS3/4A protease complex, BMS strain (P27958 1027-1711, one chain of several): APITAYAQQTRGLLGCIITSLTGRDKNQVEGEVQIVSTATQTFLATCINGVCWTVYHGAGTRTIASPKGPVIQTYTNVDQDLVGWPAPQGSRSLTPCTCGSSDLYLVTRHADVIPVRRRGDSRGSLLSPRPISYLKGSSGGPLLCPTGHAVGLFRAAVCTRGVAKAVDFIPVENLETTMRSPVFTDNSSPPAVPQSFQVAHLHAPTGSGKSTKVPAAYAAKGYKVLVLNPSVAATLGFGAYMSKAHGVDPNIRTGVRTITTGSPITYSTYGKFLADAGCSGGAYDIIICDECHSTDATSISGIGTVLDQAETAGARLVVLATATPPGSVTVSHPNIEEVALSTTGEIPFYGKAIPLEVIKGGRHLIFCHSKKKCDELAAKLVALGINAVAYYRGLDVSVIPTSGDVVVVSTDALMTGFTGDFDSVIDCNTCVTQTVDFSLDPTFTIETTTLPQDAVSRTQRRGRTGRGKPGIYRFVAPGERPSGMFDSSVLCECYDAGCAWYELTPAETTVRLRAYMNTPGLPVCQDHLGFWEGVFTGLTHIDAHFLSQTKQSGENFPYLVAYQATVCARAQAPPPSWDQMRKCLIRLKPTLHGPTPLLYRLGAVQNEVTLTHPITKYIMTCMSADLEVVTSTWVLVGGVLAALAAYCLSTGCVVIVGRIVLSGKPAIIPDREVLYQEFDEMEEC
Serum from an HCV-infected patient was obtained from Dr. T. Wright, San Francisco Hospital. […]
In order to monitor HCV NS3/4A protease activity, an NS3/4A peptide substrate was used. […] The peptide also contains a fluorescence donor, EDANS, near one end of the peptide and an acceptor, DABCYL, near the other end. The fluorescence of the peptide is quenched by […] resonance energy transfer (RET) between the donor and the acceptor, but as the NS3 protease cleaves the peptide the products are released from RET quenching and the fluorescence of the donor becomes apparent.
The peptide substrate was incubated with one of the three recombinant NS3/4A protease complexes, in the absence or presence of a compound of the present disclosure. The inhibitory effects of a compound was determined by monitoring the formation of fluorescent reaction product in real time using a Cytofluor Series 4000. […]

In data set [3] the target is T1, HCV NS3/4A protease complex, H77 strain (Hepatitis C virus genotype 1a, UniProt P27958, C1454S/C1711G).
T1 construct: DNA encoding the recombinant HCV NS3/4A protease complex (amino acids 1027 to 1711) for these strains; inferred from pET21b vector and Ni-NTA purification; made in house; host or cells: Escherichia coli BL21 (DE3), pET21b
T1 sequence (P27958 1027-1711 C1454S/C1711G, one chain of several): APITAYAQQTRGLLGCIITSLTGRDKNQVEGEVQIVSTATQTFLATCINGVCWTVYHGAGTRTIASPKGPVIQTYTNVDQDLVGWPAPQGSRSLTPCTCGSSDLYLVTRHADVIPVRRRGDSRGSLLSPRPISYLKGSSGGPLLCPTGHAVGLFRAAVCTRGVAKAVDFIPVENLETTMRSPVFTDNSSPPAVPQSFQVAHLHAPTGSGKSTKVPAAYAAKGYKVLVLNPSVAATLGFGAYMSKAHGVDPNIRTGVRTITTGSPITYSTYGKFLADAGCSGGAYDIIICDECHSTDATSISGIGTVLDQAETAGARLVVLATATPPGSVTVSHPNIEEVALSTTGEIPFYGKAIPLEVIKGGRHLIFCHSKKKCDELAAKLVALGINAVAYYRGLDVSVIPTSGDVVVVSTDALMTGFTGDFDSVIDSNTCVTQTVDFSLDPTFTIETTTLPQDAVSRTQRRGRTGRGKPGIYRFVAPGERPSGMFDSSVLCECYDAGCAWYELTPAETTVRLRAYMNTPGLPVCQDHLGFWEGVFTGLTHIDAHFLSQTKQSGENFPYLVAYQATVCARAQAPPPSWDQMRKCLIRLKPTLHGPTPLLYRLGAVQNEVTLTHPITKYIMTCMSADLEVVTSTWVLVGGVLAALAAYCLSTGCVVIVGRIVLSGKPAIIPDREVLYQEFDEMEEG
Kind of data set: FRET peptide assay to monitor HCV NS3/4A proteolytic activity, H77 strain. Type of data set: biochemical, HCV genotype 1a. As to conditions: H77 strain (1a genotype).
Source text: as §1
(§2) Serum from an HCV-infected patient was obtained from Dr. T. Wright, San Francisco Hospital. An engineered full-length cDNA (compliment deoxyribonucleic acid) template of the HCV genome (BMS strain) was constructed from DNA fragments obtained by reverse transcription-PCR(RT-PCR) of serum RNA (ribonucleic acid) and using primers selected on the basis of homology between other genotype 1a strains. From the determination of the entire genome sequence, a genotype 1a was assigned to the HCV isolate according to the classification of Simmonds et al. (See P Simmonds, K A Rose, S Graham, S W Chan, F McOmish, B C Dow, E A Follett, P L Yap and H Marsden, J. Clin. Microbiol., 31(6), 1493-1503 (1993)). […]

The target in data set [4] is T2, HCV NS3/4A protease complex, J4L6S strain (Hepatitis C virus genotype 1b, UniProt O92972, C1454S/C1711G).
T2 construct: DNA encoding the recombinant HCV NS3/4A protease complex (amino acids 1027 to 1711) for these strains; inferred from pET21b vector and Ni-NTA purification; made in house; host or cells: Escherichia coli BL21 (DE3), pET21b
T2 sequence (O92972 1027-1711 C1454S/C1711G, one chain of several): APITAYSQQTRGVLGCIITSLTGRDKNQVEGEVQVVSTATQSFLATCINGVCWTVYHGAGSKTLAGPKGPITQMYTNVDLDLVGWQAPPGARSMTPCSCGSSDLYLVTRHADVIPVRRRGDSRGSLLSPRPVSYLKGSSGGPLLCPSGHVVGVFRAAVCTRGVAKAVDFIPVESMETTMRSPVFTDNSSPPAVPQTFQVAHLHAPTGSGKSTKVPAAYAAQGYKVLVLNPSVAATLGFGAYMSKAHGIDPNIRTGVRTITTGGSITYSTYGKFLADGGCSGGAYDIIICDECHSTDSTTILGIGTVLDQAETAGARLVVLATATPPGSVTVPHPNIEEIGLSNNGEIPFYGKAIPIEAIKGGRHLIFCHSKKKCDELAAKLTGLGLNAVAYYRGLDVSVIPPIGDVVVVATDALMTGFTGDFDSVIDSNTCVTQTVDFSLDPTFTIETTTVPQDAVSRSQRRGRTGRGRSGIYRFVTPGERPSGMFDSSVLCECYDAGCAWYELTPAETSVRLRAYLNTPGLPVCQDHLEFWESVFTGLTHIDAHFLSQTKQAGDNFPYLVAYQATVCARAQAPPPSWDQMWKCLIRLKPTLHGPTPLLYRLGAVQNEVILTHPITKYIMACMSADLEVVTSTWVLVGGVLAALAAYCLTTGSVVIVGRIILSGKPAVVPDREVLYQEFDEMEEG
Nature of the data set: FRET peptide assay to monitor HCV NS3/4A proteolytic activity, J4L6S strain. As to conditions: J4L6S strain (1b genotype). The data set is classed as biochemical, HCV genotype 1b.
Source text: as §1, §2

In the case of `CC(C)(C)OC(=O)N[C@H]1CCCOC/C=C\[C@@H]2C[C@@]2(C(=O)NS(=O)(=O)C2CC2)NC(=O)[C@@H]2C[C@@H](OCc3ccccc3)CN2C1=O` [Compound 5, (1S,4R,6S,14S,18R, 7-cis)-18-benzyloxy-14-tert-butoxycarbonylamino-4-cyclopropanesulfonylaminocarbonyl-2,15-dioxo-3,16-diaza-10-oxatricyclo[14.3.0.04,6]nonadec-7-ene], the melting point lay in the range of 147 to 149 °C.
Take `CC(C)(C)OC(=O)N[C@H]1CN(C2CC2)CCC/C=C\C2C[C@@]2(C(=O)NS(=O)(=O)C2CC2)NC(=O)[C@@H]2C[C@@H](Oc3ccccn3)CN2C1=O` (some centres unmarked) [Compound 1]: the IC50 in data set [1] is above 100000 nM; in data set [2], 98 nM; in data set [3], 18 nM; in data set [4], 12 nM.
